Test results reported in patent US11052118B2, “Enhanced stem cell composition” (Fate Therapeutics, Inc., priority 2011, dated 2021).

Columns and labels:
[1] = test system: CD34+ cells migrating towards SDF1; assay: SDF-1 transwell migration assay; format: cell-based, human; settings: cells treated 4 hours at 37° C. with 10 μM, 50 ng/mL SDF1 in lower chamber, 2.5 hours; listed as dmPGE2
Procedure: Transwell migration assays were performed using 96-well chemotaxis chambers, […] pore size polycarbonate membrane (Corning Inc., Corning, N.Y.) in accordance with manufacturer's instructions. Briefly, CD34^+ cells were then treated for 4 hours at 37° C. with 16,16-dimethyl PGE2 (dmPGE2), dmPGE2 and glucocorticoid, or DMSO control at a concentration of 10 μM in StemSpan® media (Stem Cell Technology, Vancouver, Canada). The cells were then washed by centrifugation (300×g for 10 minutes) and resuspended in transwell assay buffer (Phenol Red Free RPMI media (Mediatech), 0.5% lipid free BSA (Sigma-Aldrich) at a concentration of 40,000-60,000 cells/75 μl.
To test the duration of the treatment effects, one portion of treated cells was washed by centrifugation (300×g for 10 minutes) and resuspended in StemSpan® media for 4 hours at 37° C. without dmPGE2, glucocorticoids, or DMSO and then washed again by centrifugation (300×g for 10 minutes) and resuspended in transwell assay buffer (Phenol Red Free RPMI media (Mediatech), 0.5% lipid free BSA (Sigma-Aldrich) at a concentration of 40,000-60,000 cells/75 μl.
Seventy-five μl of cell suspension was added to the upper chamber of the plate, while 235 μl of transwell assay media containing 0 or 50 ng/ml SDF1α (R&D system, Minneapolis, Minn.) was added to the bottom well. […]

[2] = test system: CXCR4 mRNA in human umbilical cord blood derived CD34+ cells; assay: CXCR4 qPCR using the Fluidigm platform; format: cell-based; settings: 10 μM single agent in SFEM, 4 h, 37° C., compared to DMSO treated cells
Procedure: Real-time PCR transcript quantitation of gene expression from ex vivo treated human umbilical cord blood derived CD34^+ cells (Stem Cell Technologies, Vancouver, BC, Canada) was performed using the BioMark Dynamic Array microfluidics system (Fluidigm Corporation, South San Francisco, Calif., USA).
CD34^+ cells derived from cord blood or mobilized peripheral blood were treated in Serum-Free Expansion Medium (SFEM; e.g., StemSpan® from StemCell Technologies, Inc.) for four hours at 37° C., 5% CO2 with 10 uM prostaglandin pathway agonist alone or in combination with 10 uM of a glucocorticoid. Prostaglandin pathway agonists included 16,16-dimethyl PGE2 (dmPGE2), 20-ethyl PGE2 (ePGE2), 15(S)-15-methyl PGE2 (mPGE2), and PGE2. Glucocorticoids included hydrocortisone, dexamethasone, medrysone, alclometasone, or triamcinalone. After treatment, cells were washed with SFEM and centrifuged at 300 g for 10 minutes.
Total RNA was isolated then isolated from treated cells using Pico Pure RNA Isolation Kit (Molecular Devices, Sunnyvale, Calif., USA). […]
Results were analyzed using BioMark Real-Time PCR Analysis software. Average Cts were calculated from the sample replicates and delta-delta Cts (ΔΔCt) were calculated using the mean of 3 reference genes (GAPDH, HPRT1, QARS) against a vehicle only sample. […]

[3] = test system: CXCR4 surface protein on CD34+ cells from human bone marrow; assay: CXCR4 surface protein expression by flow cytometry, bone marrow CD34+ cells; format: cell-based; settings: BM CD34+ cells, 10 μM each agent, 4 hours at 37° C. in SFEM, then 2 hours in SFEM
[4] = test system: CXCR4 mRNA in cord blood derived CD34+ cells; assay: CXCR4 qPCR using the Applied Biosystems StepOnePlus, cord blood CD34+ cells; format: cell-based, human
Procedure: (§1) Real-time PCR transcript quantitation from ex vivo treated cord CD34^+ cells (Stem Cell Technologies, Vancouver, BC, Canada) and mobilized peripheral blood CD34^+ cells (All Cells, LLC, Emoryville, Calif., USA) was performed using the Applied Biosystems StepOne Plus system (Life Technologies Corporation, Carlsbad, Calif., USA) (see FIG. 3). […] After treatment, cells were washed with SFEM and centrifuged at 300 g for 10 minutes.
(§2) Total RNA was then isolated from treated cells using Pico Pure RNA Isolation Kit (Molecular Devices, Sunnyvale, Calif., USA). Complimentary DNA (cDNA) was reverse transcribed from 50 ng of isolated total RNA using the High-Capacity cDNA Reverse Transcription Kit (Life Technologies).
(§3) Real-Time PCR analysis was run on the cDNA samples in duplicate. The reaction mix contained 1 μL Gene Specific Taqman Assay (20λ) and 10 μL Gene Expression Master Mix (Life Technologies) with the remaining volume of 9 μL contained 10 ng cDNA and sterile diH2O.
(§4) CXCR4 results (assay from Table 1) were analyzed using Applied Biosystems StepOne Software v2.1 Analysis software. Average Cts were calculated from the sample replicates and delta-delta Cts (ΔΔCt) were calculated using GAPDH results (assay from Table 1) as a reference gene against a vehicle only sample. […] Error bars depict +/− the Standard Deviation (SD) of the replicate measurements (See FIGS. 1-3, 5, and 6).

[5] = test system: CXCR4 mRNA in mobilized peripheral blood CD34+ cells; assay: CXCR4 qPCR using the Applied Biosystems StepOnePlus, mobilized peripheral blood CD34+ cells; format: cell-based, human
Procedure: as §1, §2, §3, §4

Question: Which results are given for `CCCCC(C)(C)[C@H](O)/C=C/[C@H]1[C@H](O)CC(=O)[C@@H]1C/C=C\CCCC(=O)O` [16,16-dimethyl PGE2]?
Answer: SDF1-driven cell migration (% of cells added), words [1]: increased SDF1-driven cell migration compared to the DMSO control; increase in CXCR4 mRNA expression [2]: 22 fold; increase in the level of CXCR4 protein expression [3]: 12 fold; CXCR4 RNA expression ([4]; cord blood CD34+ cells, 10 μM, 2 and 4 hours at 37° C. in SFEM, compared to DMSO treated cells): increase; increase in CXCR4 mRNA expression ([4]; cord blood derived CD34+ cells, 4 hour treatment in SFEM, 10 μM each agent, against vehicle only sample): 22 fold; increase in CXCR4 mRNA expression ([5]; CD34+ cells from mobilized peripheral blood, 4 hour treatment in SFEM, 10 μM each agent, against vehicle only sample): 27 fold; CXCR4 RNA expression ([5]; mPB CD34+ cells, 10 μM, 2 and 4 hours at 37° C. in SFEM, compared to DMSO treated cells): increase
